From ChEMBL document CHEMBL5724914, “Linking interpersonal differences in gut microbiota composition and drug biotransformation activity” (2024)

Key:
[1] = human gut metagenome, 24 h, 2 µM
[2] = The drug is tested on Z-012 corresponding to metagenome with ENA study accession number: PRJEB37062 and ENA sample accession number: ERS12561812 for biotransformation under anaerobic condition. The drug concentrations were measured over 9 timepoints collected between 0 and 24 hours of incubation by liquid-chromatography-coupled mass spectrometry (LC–MS); conditions: 2 µM
[3] = The drug is tested on WLS-220 corresponding to human gut metagenome with ENA study accession number: PRJEB37062 and ENA sample accession number: ERS12561769 for biotransformation under anaerobic condition. The drug concentrations were measured over 9 timepoints collected between 0 and 24 hours of incubation by liquid-chromatography-coupled mass spectrometry (LC–MS); conditions: 2 µM
[4] = The drug is tested on WLS-082 corresponding to human gut metagenome with ENA study accession number: PRJEB37062 and ENA sample accession number: ERS12561751 for biotransformation under anaerobic condition. The drug concentrations were measured over 9 timepoints collected between 0 and 24 hours of incubation by liquid-chromatography-coupled mass spectrometry (LC–MS); conditions: 2 µM
[5] = The drug is tested on Z-011 corresponding to mouse gut metagenome with ENA study accession number: PRJEB37062 and ENA sample accession number: ERS12561811 for biotransformation under anaerobic condition. The drug concentrations were measured over 9 timepoints collected between 0 and 24 hours of incubation by liquid-chromatography-coupled mass spectrometry (LC–MS); conditions: 2 µM
[6] = The drug is tested on WLS-069 corresponding to human gut metagenome with ENA study accession number: PRJEB37062 and ENA sample accession number: ERS12561748 for biotransformation under anaerobic condition. The drug concentrations were measured over 9 timepoints collected between 0 and 24 hours of incubation by liquid-chromatography-coupled mass spectrometry (LC–MS); conditions: 2 µM
[7] = human gut metagenome, 24 h, 2 µM; remark: listed apart in the source
[8] = The drug is tested on Z-020 corresponding to rabbit gut metagenome with ENA study accession number: PRJEB37062 and ENA sample accession number: ERS12561819 for biotransformation under anaerobic condition. The drug concentrations were measured over 9 timepoints collected between 0 and 24 hours of incubation by liquid-chromatography-coupled mass spectrometry (LC–MS); conditions: 2 µM
[9] = human gut metagenome, 24 h, 2 µM; remark: listed apart in the source
[10] = The drug is tested on Z-029 corresponding to rat gut metagenome with ENA study accession number: PRJEB37062 and ENA sample accession number: ERS12561828 for biotransformation under anaerobic condition. The drug concentrations were measured over 9 timepoints collected between 0 and 24 hours of incubation by liquid-chromatography-coupled mass spectrometry (LC–MS); conditions: 2 µM
[11] = The drug is tested on Z-024 corresponding to pig gut metagenome with ENA study accession number: PRJEB37062 and ENA sample accession number: ERS12561823 for biotransformation under anaerobic condition. The drug concentrations were measured over 9 timepoints collected between 0 and 24 hours of incubation by liquid-chromatography-coupled mass spectrometry (LC–MS); conditions: 2 µM
[12] = The drug is tested on Z-028 corresponding to mouse gut metagenome with ENA study accession number: PRJEB37062 and ENA sample accession number: ERS12561827 for biotransformation under anaerobic condition. The drug concentrations were measured over 9 timepoints collected between 0 and 24 hours of incubation by liquid-chromatography-coupled mass spectrometry (LC–MS); conditions: 2 µM
[13] = human gut metagenome, 24 h, 2 µM; remark: listed apart in the source
[14] = human gut metagenome, 24 h, 2 µM; remark: listed apart in the source
[15] = The drug is tested on WLS-010 corresponding to human gut metagenome with ENA study accession number: PRJEB37062 and ENA sample accession number: ERS12561743 for biotransformation under anaerobic condition. The drug concentrations were measured over 9 timepoints collected between 0 and 24 hours of incubation by liquid-chromatography-coupled mass spectrometry (LC–MS); conditions: 2 µM
[16] = The drug is tested on Z-018 corresponding to pig gut metagenome with ENA study accession number: PRJEB37062 and ENA sample accession number: ERS12561817 for biotransformation under anaerobic condition. The drug concentrations were measured over 9 timepoints collected between 0 and 24 hours of incubation by liquid-chromatography-coupled mass spectrometry (LC–MS); conditions: 2 µM
[17] = The drug is tested on Z-001 corresponding to mouse gut metagenome with ENA study accession number: PRJEB37062 and ENA sample accession number: ERS12561801 for biotransformation under anaerobic condition. The drug concentrations were measured over 9 timepoints collected between 0 and 24 hours of incubation by liquid-chromatography-coupled mass spectrometry (LC–MS); conditions: 2 µM
[18] = The drug is tested on WLS-052 corresponding to human gut metagenome with ENA study accession number: PRJEB37062 and ENA sample accession number: ERS12561747 for biotransformation under anaerobic condition. The drug concentrations were measured over 9 timepoints collected between 0 and 24 hours of incubation by liquid-chromatography-coupled mass spectrometry (LC–MS); conditions: 2 µM
[19] = human gut metagenome, 24 h, 2 µM; remark: listed apart in the source
[20] = human gut metagenome, 24 h, 2 µM; remark: listed apart in the source
Note: call rule not given here.

SMILES	Bacterial Biotransformation [1]	Bacterial Biotransformation [2]	Bacterial Biotransformation [3]	Bacterial Biotransformation [4]	Bacterial Biotransformation [5]	Bacterial Biotransformation [6]	Bacterial Biotransformation [7]	Bacterial Biotransformation [8]	Bacterial Biotransformation [9]	Bacterial Biotransformation [10]	Bacterial Biotransformation [11]	Bacterial Biotransformation [12]	Bacterial Biotransformation [13]	Bacterial Biotransformation [14]	Bacterial Biotransformation [15]	Bacterial Biotransformation [16]	Bacterial Biotransformation [17]	Bacterial Biotransformation [18]	Bacterial Biotransformation [19]	Bacterial Biotransformation [20]
CCN(CC)CC#CCOC(=O)C(O)(c1ccccc1)C1CCCCC1.Cl (stereo not given) [OXYBUTYNIN CHLORIDE]	Compound metabolized	Compound metabolized	Compound metabolized	Compound metabolized	Compound NOT metabolized	Compound metabolized	Compound metabolized	Compound metabolized	Compound metabolized	Compound NOT metabolized	Compound metabolized	Compound NOT metabolized	Compound metabolized	Compound NOT metabolized	Compound metabolized	Compound metabolized	Compound metabolized	Compound metabolized	Compound metabolized	Compound metabolized
Fc1ccc([C@@H]2CCNC[C@H]2COc2ccc3c(c2)OCO3)cc1 [PAROXETINE]	Compound metabolized	Compound NOT metabolized	Compound metabolized	Compound metabolized	Compound NOT metabolized	Compound metabolized	Compound metabolized	Compound NOT metabolized	Compound metabolized	Compound NOT metabolized	Compound metabolized	Compound NOT metabolized	Compound metabolized	Compound NOT metabolized	Compound metabolized	Compound NOT metabolized	Compound NOT metabolized	Compound NOT metabolized	Compound metabolized	Compound NOT metabolized
O=c1[nH]c2ccccc2n1C1CCN(CCCC(c2ccc(F)cc2)c2ccc(F)cc2)CC1 [PIMOZIDE]	Compound metabolized	Compound metabolized	Compound metabolized	Compound metabolized	Compound metabolized	Compound metabolized	Compound metabolized	Compound metabolized	Compound metabolized	Compound NOT metabolized	Compound metabolized	Compound NOT metabolized	Compound metabolized	Compound NOT metabolized	Compound metabolized	Compound metabolized	Compound metabolized	Compound metabolized	Compound metabolized	Compound NOT metabolized
CS(=O)(=O)O.OC(CCN1CCCCC1)(c1ccccc1)c1ccccc1 [PRIDINOL METHANESULFONATE]	Compound metabolized	Compound NOT metabolized	Compound metabolized	Compound NOT metabolized	Compound NOT metabolized	Compound NOT metabolized	Compound metabolized	Compound NOT metabolized	Compound metabolized	Compound NOT metabolized	Compound NOT metabolized	Compound NOT metabolized	Compound NOT metabolized	Compound metabolized	Compound NOT metabolized	Compound NOT metabolized	Compound NOT metabolized	Compound NOT metabolized	Compound NOT metabolized	Compound NOT metabolized
CC(CN1c2ccccc2Sc2ccccc21)N(C)C (stereo not given) [PROMETHAZINE]	Compound metabolized	Compound NOT metabolized	Compound metabolized	Compound NOT metabolized	Compound NOT metabolized	Compound metabolized	Compound metabolized	Compound NOT metabolized	Compound metabolized	Compound NOT metabolized	Compound metabolized	Compound NOT metabolized	Compound NOT metabolized	Compound NOT metabolized	Compound NOT metabolized	Compound metabolized	Compound NOT metabolized	Compound NOT metabolized	Compound metabolized	Compound metabolized
